From US10597388B2, “Pyridazinone herbicides” (FMC CORPORATION, priority 2014, dated 2020)

How the values were obtained:
Experiment in all cases: Test D controlled growth environment herbicide test, pre- and postemergence
Type in all cases: in vivo
[1] = system: blackgrass (Alopecurus myosuroides)
Summary of the method: (§1)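 Pre-emergence: seeds sown in silt loam soil were sprayed with compound in a non-phytotoxic solvent mix containing surfactant. Post-emergence: plants at 2 to 18 cm (1- to 4-leaf stage) in peat moss/vermiculite medium got the same formulation. Visual 0–100 rating versus controls after 14 to 21 d.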

[2] = system: ryegrass, Italian (Italian ryegrass, Lolium multiflorum)
Summary of the method: as §1

[3] = system: speedwell (bird's-eye speedwell, Veronica persica)
Summary of the method: as §1

[4] = system: canarygrass (Phalaris minor)
Summary of the method: as §1

[5] = system: lambsquarters (Chenopodium album)
Summary of the method: as §1

[6] = system: chickweed (common chickweed, Stellaria media)
Summary of the method: as §1

[7] = system: bromegrass, downy (downy bromegrass, Bromus tectorum)
Summary of the method: as §1

[8] = system: field poppy (Papaver rhoeas)
Summary of the method: as §1

[9] = system: chamomile (scentless chamomile, Matricaria inodora)
Summary of the method: as §1

[10] = system: oilseed rape (Brassica napus)
Summary of the method: as §1

[11] = system: buckwheat, wild (wild buckwheat, Polygonum convolvulus)
Summary of the method: as §1

[12] = system: barley, winter (winter barley, Hordeum vulgare)
Summary of the method: as §1

[13] = system: galium (catchweed bedstraw, Galium aparine)
Summary of the method: as §1

[14] = Postemergence, 31 g ai/ha, scale 0 to 100 (0 no effect, 100 complete control)
[15] = Postemergence, 125 g ai/ha, visual rating on scale 0 (no effect) to 100 (complete control), 14 to 21 d
[16] = Postemergence, 250 g ai/ha, scale 0 to 100 (0 no effect, 100 complete control)
[17] = Preemergence, 62 g ai/ha, scale 0 to 100 (0 no effect, 100 complete control)
[18] = Preemergence, 125 g ai/ha, scale 0 to 100 (0 no effect, 100 complete control)
[19] = Preemergence, 250 g ai/ha, scale 0 to 100 (0 no effect, 100 complete control)
[20] = postemergence, 62 g ai/ha, scale 0 to 100, 0 no effect, 100 complete control

Structure (SMILES): COc1nn(C)c(=O)c(-c2c(C)ccc3ccccc23)c1O [Compound 54]
- Blackgrass plant response rating [1, 14]: 25
- Plant response rating, Blackgrass [1, 15]: 70
- Plant response rating, Blackgrass [1, 16]: 75
- Plant response rating (scale of 0 to 100), Blackgrass ([1]; Preemergence, 31 g ai/ha): 15
- Plant response rating, Blackgrass [1, 17]: 30
- Plant response rating, Blackgrass [1, 18]: 50
- Plant response rating, Blackgrass [1, 19]: 75
- Plant response rating, Blackgrass [1, 20]: 40
- Ryegrass, Italian plant response rating [2, 14]: 80
- Plant response rating, Ryegrass, Italian [2, 15]: 90
- Plant response rating, Ryegrass, Italian [2, 16]: 95
- Plant response rating (scale of 0 to 100), Ryegrass, Italian ([2]; Preemergence, 31 g ai/ha): 35
- Plant response rating, Ryegrass, Italian [2, 17]: 90
- Plant response rating, Ryegrass, Italian [2, 18]: 100
- Plant response rating, Ryegrass, Italian [2, 19]: 100
- Plant response rating, Ryegrass, Italian [2, 20]: 85
- Speedwell plant response rating [3, 14]: 75
- Plant response rating, Speedwell [3, 15]: 100
- Plant response rating, Speedwell [3, 16]: 100
- Plant response rating (scale of 0 to 100), Speedwell ([3]; Preemergence, 31 g ai/ha): 100
- Plant response rating, Speedwell [3, 17]: 95
- Plant response rating, Speedwell [3, 18]: 100
- Plant response rating, Speedwell [3, 19]: 100
- Plant response rating, Speedwell [3, 20]: 100
- Canarygrass plant response rating [4, 14]: 35
- Plant response rating, Canarygrass [4, 15]: 65
- Plant response rating, Canarygrass [4, 16]: 75
- Plant response rating (scale of 0 to 100), Canarygrass ([4]; Preemergence, 31 g ai/ha): 15
- Plant response rating, Canarygrass [4, 17]: 55
- Plant response rating, Canarygrass [4, 18]: 80
- Plant response rating, Canarygrass [4, 19]: 90
- Plant response rating, Canarygrass [4, 20]: 55
- Lambsquarters plant response rating [5, 14]: 95
- Plant response rating, Lambsquarters [5, 15]: 95
- Plant response rating, Lambsquarters [5, 16]: 100
- Plant response rating (scale of 0 to 100), Lambsquarters ([5]; Preemergence, 31 g ai/ha): 65
- Plant response rating, Lambsquarters [5, 17]: 65
- Plant response rating, Lambsquarters [5, 18]: 95
- Plant response rating, Lambsquarters [5, 19]: 95
- Plant response rating, Lambsquarters [5, 20]: 95
- Chickweed plant response rating [6, 14]: 100
- Plant response rating, Chickweed [6, 15]: 100
- Plant response rating, Chickweed [6, 16]: 100
- Plant response rating (scale of 0 to 100), Chickweed ([6]; Preemergence, 31 g ai/ha): 85
- Plant response rating, Chickweed [6, 17]: 90
- Plant response rating, Chickweed [6, 18]: 95
- Plant response rating, Chickweed [6, 19]: 100
- Plant response rating, Chickweed [6, 20]: 100
- Bromegrass, Downy plant response rating [7, 14]: 10
- Plant response rating, Bromegrass, Downy [7, 15]: 55
- Plant response rating, Bromegrass, Downy [7, 16]: 75
- Plant response rating (scale of 0 to 100), Bromegrass, Downy ([7]; Preemergence, 31 g ai/ha): 0
- Plant response rating, Bromegrass, Downy [7, 17]: 15
- Plant response rating, Bromegrass, Downy [7, 18]: 15
- Plant response rating, Bromegrass, Downy [7, 19]: 40
- Plant response rating, Bromegrass, Downy [7, 20]: 55
- Field Poppy plant response rating [8, 14]: 70
- Plant response rating, Field Poppy [8, 15]: 100
- Plant response rating, Field Poppy [8, 16]: 100
- Plant response rating (scale of 0 to 100), Field Poppy ([8]; Preemergence, 31 g ai/ha): 90
- Plant response rating, Field Poppy [8, 17]: 55
- Plant response rating, Field Poppy [8, 18]: 100
- Plant response rating, Field Poppy [8, 19]: 100
- Plant response rating, Field Poppy [8, 20]: 100
- Chamomile plant response rating [9, 14]: 90
- Plant response rating, Chamomile [9, 15]: 100
- Plant response rating, Chamomile [9, 16]: 100
- Plant response rating, Chamomile [9, 20]: 100
- Oilseed Rape plant response rating [10, 14]: 75
- Plant response rating, Oilseed Rape [10, 15]: 100
- Plant response rating, Oilseed Rape [10, 16]: 100
- Plant response rating (scale of 0 to 100), Oilseed Rape ([10]; Preemergence, 31 g ai/ha): 15
- Plant response rating, Oilseed Rape [10, 17]: 50
- Plant response rating, Oilseed Rape [10, 18]: 85
- Plant response rating, Oilseed Rape [10, 19]: 100
- Plant response rating, Oilseed Rape [10, 20]: 95
- Buckwheat, Wild plant response rating [11, 14]: 100
- Plant response rating, Buckwheat, Wild [11, 15]: 100
- Plant response rating, Buckwheat, Wild [11, 16]: 100
- Plant response rating (scale of 0 to 100), Buckwheat, Wild ([11]; Preemergence, 31 g ai/ha): 0
- Plant response rating, Buckwheat, Wild [11, 17]: 5
- Plant response rating, Buckwheat, Wild [11, 18]: 70
- Plant response rating, Buckwheat, Wild [11, 19]: 80
- Plant response rating, Buckwheat, Wild [11, 20]: 100
- Barley, Winter plant response rating [12, 14]: 0
- Plant response rating, Barley, Winter [12, 15]: 5
- Plant response rating, Barley, Winter [12, 16]: 30
- Plant response rating (scale of 0 to 100), Barley, Winter ([12]; Preemergence, 31 g ai/ha): 0
- Plant response rating, Barley, Winter [12, 17]: 0
- Plant response rating, Barley, Winter [12, 18]: 0
- Plant response rating, Barley, Winter [12, 19]: 0
- Plant response rating, Barley, Winter [12, 20]: 0
- Galium plant response rating [13, 14]: 100
- Plant response rating, Galium [13, 15]: 100
- Plant response rating, Galium [13, 16]: 100
- Plant response rating (scale of 0 to 100), Galium ([13]; Preemergence, 31 g ai/ha): 0
- Plant response rating, Galium [13, 17]: 45
- Plant response rating, Galium [13, 18]: 85
- Plant response rating, Galium [13, 19]: 100
- Plant response rating, Galium [13, 20]: 100
